Measurements: patent publication US7560462B2, “Compounds useful for inhibiting CHK1” (ICOS Corporation, priority 2004, dated 2009)

What was measured:
[1] = system: Chk1 phosphorylation in HT29 cells; assay: Western blot of Chk1 phosphorylation at serines 317 and 345; format: cell-based, human; details: 20 μM for two h, then 22 h washout
Text: To determine whether an agent is a Chk1 activator, the phosphorylation state of Chk1 can be measured using phospho-specific antibodies to specific phosphorylation sites on Chk1. […] Liu et al., Genes Dev. 14:1448-59, 2000; Zhao et al., Mol. Cell. Biol. 21:4129-39, 2001; Lopez-Girona et al., Proc. Natl. Acad. Sci. U.S.A. 98:11289-94, 2001; Guo et al., Genes Dev. 14:2745-56, 2000; Gatei et al., J. Biol. Chem. 278:14806-11, 2003; Ng et al., J Biol. Chem. 279(10):8808-19, 2004; Wang et al., Natl Acad Sci USA. 100(26):15387-92, 2003; Stojic et al., Genes Dev. 18(11):1331-44, 2004. These serine sites are phosphorylated by upstream checkpoint kinases, Atm and Atr. Liu et al., Genes Dev. 14:1448-59, 2000; Zhao et al. Mol. Cell. Biol., 21:4129-39, 2001).
The phosphorylation of these sites in response to a candidate Chk1 activator can be monitored by Western blot or immunohistochemistry of tumor cells. […] HT29 cells are treated with 20 μM gemcitabine for two h. The gemcitabine is washed out of the cell growth media and cells are incubated for 22 additional h. Protein lysates are prepared and separated by an SDS-polyacrylamide gel electrophoresis. Proteins are transferred to PVDF membranes and probed with antisera (Cell Signalling) specific for either phosphorylated serine 317 or 345 (Cell Signalling).

[2] = system: Chk1 serine 296 phosphorylation in HT29 cells; assay: Western blot of Chk1 phosphorylation at serine 296; format: cell-based, human
Method: Phosphorylation at this site is not inhibited by wortmannin, which inhibits Atm and Atr. Therefore, the phosphorylation of serine 296 is distinct from phosphorylation at serines 317 and 345. […] Therefore, this approach can be used to monitor Chk1 activity in tumors in response to Chk1 activators. Further, this approach can be used to measure inhibition of Chk1 activation by Chk1 inhibitors.
Thus, HT 29 cells are treated with 20 μM gemcitabine for two h. The gemcitabine is washed out of the cell growth media and cells are incubated for 22 additional h. Protein lysates are prepared and separated by an SDS-polyacrylamide gel electrophoresis. Proteins are transferred to polyvinylidene fluoride (PVDF) membranes and probed with antisera (Cell Signalling) specific for phosphorylated serine 296 (Cell Signalling). […] Further, HT29 cells treated with selective Chk1 inhibitors for 15 min show no serine 296 phosphorylation.

[3] = system: colon tumor cell line xenograft tumors; assay: Animal tumor models (xenograft); format: in vivo, Balb/c (nu/nu) mice; details: 160 mg/kg i.p., xenograft mice
Text: To test the ability of the Chk1 inhibitors of the invention to enhance the killing of tumors by DNA damaging agents in mice, xenograft tumor models using colon tumor cell lines are established. 5-fluorouracil (5-FU) or gemcitabine can be used as DNA damaging agents; HT29 and Colo205 (human colon carcinoma) and H460 and Calu-6 (nonsmall cell carcinoma) cells can be used to propagate xenograft tumors in 6-8 week old female […] Balb/c (nu/nu) mice. Mice are maintained in a laminar airflow cabinet under pathogen-free conditions and fed sterile food and water ad libitum. Cell lines are grown to subconfluence in RPMI 1640 media supplemented with 10% FBS, 100 U/mL penicillin, 100 μg/mL streptomycin, and 1.5 mM L-glutamine in a 5% CO2 humidified environment. Single cell suspensions are prepared in CMF-PBS, and cell concentration adjusted to 1×10^8 cells/mL. Mice are inoculated subcutaneously (s.c.) on the right flank or right leg with a total of 1×10^7 cells (100 μL). Mice are randomized (5-15 mice/group) into four treatment groups and used when tumors reach a volume of […] (usually 7-11 days post-inoculation). Tumors are measured with vernier calipers and tumor volumes are estimated using the empirically derived formula: tumor volume (cm^3)=tumor length (cm)×tumor width (cm)×tumor depth (cm)/3.3. […] Tumor size is monitored every other day for the duration of the experiment.

Nc1ccn([C@@H]2O[C@H](CO)[C@@H](O)C2(F)F)c(=O)n1 [gemcitabine, 2′,2′ difluoro-2′-deoxycytidine]
phosphorylation of Chk1 serines 317 and 345 [1]: results in the phosphorylation of both serines 317 and 345
phosphorylation of Chk1 serine 296 ([2]; HT29 cells, 20 μM for two h, then 22 h washout): results in the phosphorylation of serine 296
tumor growth [3]: delay in tumor growth is observed

COC[C@H]1OC(=O)c2coc3c2[C@@]1(C)C1=C(C3=O)[C@@H]2CCC(=O)[C@@]2(C)C[C@H]1OC(C)=O [wortmannin]
inhibition of Chk1 serine 296 phosphorylation ([2]; gemcitabine-stimulated tumor cells): not inhibited
